This note sets out measurements from ChEMBL document CHEMBL4393715, “Design, synthesis and biological evaluation of the thioether-containing lenalidomide analogs with anti-proliferative activities” (Eur J Med Chem, 2019).

One data set has as its system PBMC. The data set can be described thus: Cytotoxicity against human PBMC cells by CellTiter96 Aqueous non-radioactive cell proliferation assay. It is filed as cell-based.
The nature of data set [1]: Clearance in BALB/c mouse at 5 mg/kg, iv and measured up to 24 hrs by LC-MS/MS analysis. It counts as ADME, organism-based. The conditions noted are these: in vivo.
The next data set relates to JeKo-1. The data set can be described thus: Antiproliferative activity against human JeKo1 cells measured after 72 hrs by CellTiter96 Aqueous non-radioactive cell proliferation assay. It is filed as functional, cell-based. As to conditions: JeKo-1, 72 h.
Data set [2] deals with RPMI-8226. Put plainly: Antitumour activity against human RPMI8226 cells xenografted in CB-17 SCID mouse assessed as inhibition of tumour growth at 60 mg/kg/day, po measured twice a week for 21 days relative to control. Set-up: scale not given: the % may be the effect or the level left. It is filed as functional. (Xenograft models place foreign cells or tissue in a host animal.)

Data set [3] in a line: Tmax in BALB/c mouse at 20 mg/kg, po and measured up to 24 hrs by LC-MS/MS analysis. It is filed as ADME, organism-based. As to conditions: in vivo.
A further data set has as its system MV4-11. The data set can be described thus: Antiproliferative activity against human MV411 cells measured after 168 hrs by CellTiter96 Aqueous non-radioactive cell proliferation assay. It counts as functional, cell-based. As to conditions: MV4-11, 168 h.
Data set [4] is described as follows: Terminal elimination half life in BALB/c mouse at 20 mg/kg, po and measured up to 24 hrs by LC-MS/MS analysis. It is filed as ADME, organism-based. As to conditions: in vivo, read-out: LambdaZ (converted).
The subject of another data set is MM1.S. The data set can be described thus: Antiproliferative activity against human MM1S cells measured after 168 hrs by CellTiter96 Aqueous non-radioactive cell proliferation assay. It is filed as functional, cell-based.
A short description of data set [5]: Half-life in BALB/c mouse at 5 mg/kg, iv and measured up to 24 hrs by LC-MS/MS analysis. It is filed as ADME, organism-based. As to conditions: in vivo.
Data set [6] can be described thus: MRT (infinity) in BALB/c mouse at 5 mg/kg, iv and measured up to 24 hrs by LC-MS/MS analysis. It counts as ADME, organism-based. As to conditions: in vivo.
Data set [7] is described as follows: Oral bioavailability in BALB/c mouse at 20 mg/kg and measured up to 24 hrs by LC-MS/MS analysis. It is filed as ADME, organism-based. As to conditions: in vivo.
A short description of data set [8]: Antiproliferative activity against human Mino cells measured after 72 hrs by CellTiter96 Aqueous non-radioactive cell proliferation assay. It is filed as functional, cell-based.
Data set [9] can be described thus: Toxicity in CB-17 SCID mouse xenografted with human RPMI8226 cells assessed as increase in body weight at 60 mg/kg/day, po and measured after day 18 (reference value: 13.4%). It is filed as organism-based. As to conditions: in vivo.
The nature of data set [10]: Cmax in BALB/c mouse at 20 mg/kg, po and measured up to 24 hrs by LC-MS/MS analysis. Set-up: dose 20 mg/kg, route oral. As to conditions: in vivo. It counts as ADME, organism-based.
Data set [11] concerns RPMI-8226. The data set can be described thus: Antiproliferative activity against human RPMI8226 cells measured after 72 hrs by CellTiter96 Aqueous non-radioactive cell proliferation assay. It is filed as functional, cell-based. As to conditions: RPMI-8226, 72 h.
The nature of data set [12]: AUC (infinity) in BALB/c mouse at 5 mg/kg, iv and measured up to 24 hrs by LC-MS/MS analysis. It is filed as ADME, organism-based. The arrangement: dose 5 mg/kg, route intravenous, time infinity. The conditions noted are these: in vivo.
Data set [13] relates to RPMI-8226. Put plainly: Antitumour activity against human RPMI8226 cells xenografted in CB-17 SCID mouse assessed as relative tumour volume at 60 mg/kg/day, po measured twice a week for 21 days. It is filed as functional.
For another data set, the system named is Raji. Put plainly: Antiproliferative activity against human Raji cells measured after 168 hrs by CellTiter96 Aqueous non-radioactive cell proliferation assay. It is filed as functional, cell-based.
A short description of data set [14]: AUC (infinity) in BALB/c mouse at 20 mg/kg, po and measured up to 24 hrs by LC-MS/MS analysis. It counts as ADME, organism-based. Set-up: dose 20 mg/kg, route oral, time infinity. The conditions noted are these: in vivo.
The next data set has as its system THP-1. Put plainly: Antiproliferative activity against human THP1 cells measured after 168 hrs by CellTiter96 Aqueous non-radioactive cell proliferation assay. It is filed as functional, cell-based. The conditions noted are these: THP-1, 168 h.
Data set [15] is described as follows: Toxicity in CB-17 SCID mouse xenografted with human RPMI8226 cells assessed as body weight at 60 mg/kg/day, po and measured after day 18 (reference value: 20.1 to 20.4 g). It is filed as organism-based. As to conditions: in vivo.
The subject of another data set is U-266. The data set can be described thus: Antiproliferative activity against human U266 cells measured after 72 hrs by CellTiter96 Aqueous non-radioactive cell proliferation assay. It is filed as functional, cell-based. As to conditions: U-266, 72 h.
Data set [16] can be described thus: Volume of distribution at steady state in BALB/c mouse at 5 mg/kg, iv and measured up to 24 hrs by LC-MS/MS analysis. The conditions noted are these: in vivo, read-out: Vdss. It is filed as ADME, organism-based.
Data set [17] is described as follows: Toxicity in CB-17 SCID mouse xenografted with human RPMI8226 cells assessed as mortality at 60 mg/kg/day, po and measured after day 18. As to conditions: in vivo. It is filed as organism-based.
The test system of data set [18] is RPMI-8226. The data set can be described thus: Antitumour activity against human RPMI8226 cells xenografted in CB-17 SCID mouse assessed as tumour volume at 60 mg/kg/day, po measured after day 18 (reference value: 153 to 154 mm3). It counts as functional.
The next data set concerns Z-138. Put plainly: Antiproliferative activity against human Z138 cells measured after 72 hrs by CellTiter96 Aqueous non-radioactive cell proliferation assay. The conditions noted are these: Z-138, 72 h. It counts as functional, cell-based.
For the next data set, the system named is Kasumi 1. Put plainly: Antiproliferative activity against human Kasumi-1 cells measured after 168 hrs by CellTiter96 Aqueous non-radioactive cell proliferation assay. It is filed as functional, cell-based. The conditions noted are these: Kasumi 1, 168 h.

As for `O=C1CCC(N2Cc3c(SCc4ccc(Cl)cc4)cccc3C2=O)C(=O)N1` (stereo not given), the IC50 in the data set on PBMC was more than 20000 nM; in the data set on JeKo-1 it was more than 20000 nM; in the data set with MV4-11, more than 20000 nM; with MM1.S, 1.1 nM; in [8], 2.3 nM; in the data set on RPMI-8226 [11], 5.5 nM. Besides, the IC50 in the data set with Raji, in the data set with THP-1, in the data set with U-266, with Z-138 and in the data set with Kasumi 1 was more than 20000 nM in each case. The clearance in [1] was 196 mL/min/kg. Further, the Activity in the data set on RPMI-8226 [2] is listed as 52.31%; in data set [9], 9.8%; in data set [15] it was 22.4 g; in data set [17], “Non-Toxic”; in the data set with RPMI-8226 [18], 1022 mm3. Further, the Tmax in data set [3] stood at 49.8 min. Further, the half-life in [4] is 107 min; in data set [5], 113 min. The compound also registered an MRT inf in data set [6] of 56.4 min. The bioavailability in [7] turned out to be 39.2%. Besides, the concentration in data set [10] peaked (Cmax) at 283 ng/mL. Further, the results for the AUC(0-inf) in data set [12] and in [14] were 428 ng·h/mL and 755 ng·h/mL, respectively. The “fold change (FC)” value with RPMI-8226 [13] is reported as 6.62. The Vd in data set [16] came out at 11.1 L/kg.

In the case of `O=C1CC[C@H](N2Cc3c(OCc4ccc(CN5CCOCC5)cc4)cccc3C2=O)C(=O)N1` [IBERDOMIDE], the clearance in data set [1] stood at 43.5 mL/min/kg. Besides, the Activity was 27.07% with RPMI-8226 [2], 22.1 g in data set [15], “Non-Toxic” in [17] and 517 mm3 with RPMI-8226 [18]. Besides, in data set [3], the time to peak (Tmax) is 8.4 min. Also, the IC50 in the data set on MV4-11 is more than 20000 nM; with MM1.S it was 13 nM; in data set [8], 112 nM. Further, the half-life in data set [4] is 54 min; in [5] it was 58.2 min. Also, in [6], the MRT inf worked out at 43.8 min. Moreover, in [7], the bioavailability was determined as 22.8%. Also, in data set [10], the Cmax amounted to 2060 ng/mL. For the same compound, the AUC(0-inf) in data set [12] was determined as 1940 ng·h/mL; in data set [14], 1810 ng·h/mL. In addition, the “fold change (FC)” value in the data set with RPMI-8226 [13] is listed as 3.42. Besides, the Vd in data set [16] was 1.9 L/kg.

Usually IC50 stands for the concentration that gives 50% inhibition. As usually defined, the clearance is the rate of elimination divided by the concentration. What is called Tmax is the time from dosing to the highest level. In general, MRT inf refers to the average time that molecules of a dose stay in the body. For orientation: bioavailability means the share of a dose that reaches the circulation, judged against a reference dose that is usually intravenous. One may read the Cmax as the peak of the concentration-time curve. For orientation: AUC(0-inf) means total exposure, with the tail of the curve extrapolated.
